Data: EP0263493A2, “Pharmaceutic preparation to improve the gastro-intestinal resorption” (priority 1986, dated 1988)

What was measured:
[1] = Antibiotic plasma level and bioavailability after oral or enteral (duodenal) administration, rats (bioassay with E. coli 1346)
Description: Eine erste in vivo-Testanordnung war wie folgt: Als Versuchsobjekte wurden Menschen und Ratten eingesetzt, die ein β-Lactam-Antibiotikum sowohl oral als auch enteral erhielten. Für die orale Verabreichung wurden die Antibiotika in destilliertem Wasser oder in einem Träger wie Witepsol H15 allein oder zusammen mit CAPMUL MCM 90 und einem Resorptionsverstärker wie Natriumchenodeoxycholat (NaCDC) oder Chenodeoxycholsäure oder Natriumdeoxycholat (NaDC) oder Deoxycholsäure verwendet. In de gleichen Weise wurden die Antibiotika für die enterale Verabreichung hergerichtet und duodenal verabreicht.
Plasmaspiegel der Antibiotika wurden im Blut aus der Armvene des Menschen und der Schwanzvene der Ratte nach Zentrifugieren bestimmt. Die Antibiotika-enthaltenden Blutproben von Ratten wurden durch Bioassay auf einer Nunc-Platte analysiert; E. coli 1346, über Nacht auf einer Antibiotika--Agar Nr. 1-Kultur kultiviert wurde mit Kochsalzlösung gewaschen, wobei eine Suspension mit 90% Durchlässigkeit auf einem Bausch und Lomb-Spectronic 20 (650 nm) hergestellt wurde. 16 ml der erhaltenen Suspension wurden zu 600 ml geschmolzenem Antibiotika-Agar Nr. 1 gegeben, 200 ml des beimpften Agars wurden auf jede Nunc-Platte (243 × 243 ×18 mm) gegeben. Die Agarplatten wurden ausgestanzt, so dass […] Proben in jede Höhlung gegeben werden konnten.
Bei den vorstehend beschriebenen Versuchen wurden Lösungen des Wirkstoffs in destilliertem Wasser bei Raumtemperatur hergestellt und sofern ein Resorptionsverstärker anwesend war, dieser in feinverteilter Form langsam eingeführt, wobei eine feinteilige Suspension erhalten wurde.

Ratten = experiment: Insulin effect on blood glucose level after injection into the duodenum of fasted, anaesthetised rats; format: in vivo; settings: presence of NaCDC in the insulin preparations, summary of Tabelle 2
Description: In dieser Versuchsanordnung wurden Ratten über Nacht fasten gelassen, anästhesiert und der Wirkstoff durch Injektion in das Duodenum verabreicht. Blutproben aus dem Schwanz wurden zu verschiedenen Zeiten entnommen und auf chemisch vorbehandeltem Papier (Chemistrip bg. Boehringer Mannheim Diagnostics) mittels eines Accucheck bg Blutglukosemonitors (Biodynamics, Baltimore) ausgewertet.

[2] = given with Natriumchenodeoxycholat instead of Wasser, summary of Tabelle 1

## NC(=O)OC[C@@H]1[C@H](NC(=O)/C(=N\OCC(=O)O)c2csc(N)n2)C(=O)N1S(=O)(=O)O [Carumonam]
[1]; [2]
  Spiegel des Antibiotikums: signifikant höhere Spiegel

## CO[C@@]1(NC(=O)C(C(=O)O)c2ccc(O)cc2)C(=O)N2C(C(=O)O)=C(CSc3nnnn3C)CO[C@@H]21 (stereo partly drawn) [Moxalactam]
[1]; in vivo
  Spiegel des Antibiotikums: signifikant höhere Spiegel

## C[C@H](CCC(=O)O)[C@H]1CC[C@H]2[C@@H]3[C@H](O)C[C@@H]4C[C@H](O)CC[C@]4(C)[C@H]3CC[C@]12C [NaCDC, Natriumchenodeoxycholat]
Ratten
  Blutzucker: signifikanten zeitweisen Verminderung des Blutzuckers

## CC1(C)S[C@@H]2[C@H](/N=C/N3CCCCCC3)C(=O)N2[C@H]1C(=O)O [Amdinocillin]
[1]; in vivo
  Spiegel des Antibiotikums: signifikant höhere Spiegel

## Cn1nnnc1SCC1=C(C(=O)O)N2C(=O)[C@@H](NC(=O)[C@H](O)c3ccccc3)[C@H]2SC1 [Cefamandol]
[1]; [2]
  Spiegel des Antibiotikums: signifikant höhere Spiegel

## CO/N=C(\C(=O)N[C@@H]1C(=O)N2C(C(=O)O)=C(CSc3nc(=O)c(=O)[nH]n3C)CS[C@H]12)c1csc(N)n1 [Ceftriaxon]
[1]; in vivo
  Resorption von Ceftriaxon: synergistisch verstärkt
  Spiegel des Antibiotikums: signifikant höhere Spiegel
  Spiegel von Ceftriaxon: erhöht

## C[C@@H](O)[C@H]1C(=O)N2C(C(=O)O)=C(SCCN)C[C@H]12 [Thienamycin]
[1]; in vivo
  Spiegel des Antibiotikums: signifikant höhere Spiegel
